From patent US7851589B2, “Polypeptide derived from the ryanodine receptor that inhibits calcium leakage” (Otsuka Pharmaceutical Co., Ltd., priority 2004, dated 2010)

Columns and labels:
ryanodine receptor = assay: FK506-induced Ca2+ leakage in sarcoplasmic reticulum derived from canine myocardium (fluo 3 indicator); format: biochemical; conditions: for Ca2+ leakage inhibitory effect: 30 μM FK506 + 1 μM thapsigargin, value 20 seconds after addition, canine myocardial sarcoplasmic reticulum; for Ca2+ leakage inhibitory effect / Ca2+ leakage inhibitory activity compared with R2P: polypeptide 0.1, 0.3 or 1.0 μM
Method: Ca^2+ leakage inhibitory activity was measured through the method of Yano, M., et al. [Yano, et al., Circulation, 102, 2131-2136 (2000)].
Firstly, sarcoplasmic reticulum was prepared from canine myocardium through the method of Kranias, et al. [Kranias E., et al., Biochim. Biophys. Acta., 709, 28-37 (1982)].
Subsequently, the sarcoplasmic reticulum (0.2 mg/mL) was incubated in 0.5 mL of 20 mM MOPS buffer (pH 6.8) containing […] potassium gluconate, 0.2 mM EGTA-calcium buffer (free calcium: Ca^2+=0.3 μM), and 10 mM NaN3.
After the fluorescence value was maintained constant, 0.5 mM ATP (product of Sigma) and 0.5 mM magnesium chloride were added to the resultant mixture, to thereby initiate Ca^2+ uptake. The time course of Ca^2+ uptake was measured. Ca^2+ uptake was measured by means of fluo 3 (product of Molecular Probes) serving as a Ca^2+ indicator, and the fluorescence intensity at an excitation wavelength of 480 nm and an emission wavelength of 530 nm was measured by means of a fluorometer.
After Ca^2+ uptake reached a plateau, 1 μM thapsigargin (product of Wako Pure Chemical Industries, Ltd.) was added to thereby inhibit sarco(endo)plasmic reticulum Ca-ATPase (SERCA) activity for elimination of the influence of SERCA. The difference between the fluorescence value before addition of ATP and the fluorescence value at the time of completion of ATP-induced active Ca^2+ uptake (i.e., the fluorescence value at the time when Ca^2+ uptake reached a plateau) was taken as 100%.
Ca^2+ leakage induced by simultaneous addition of thapsigargin and 30 μM FK506 (product of Fujisawa Pharmaceutical Co., Ltd,), which was regarded as a control of Ca^2+ leakage induction, was measured by means of a Ca^2+ indicator.
A polypeptide obtained in (a) above (concentration: 0.1 μM, 0.3 μM, or 1.0 μM) and FK506 (30 μM/L) were added simultaneously with administration of thapsigargin, and the effect of inhibiting the thus-induced Ca^2+ leakage via ryanodine receptor was measured by means of a Ca^2+ indicator in a manner similar to that described above.
In each of these figures, the vertical axis corresponds to the value as measured 20 seconds after addition of thapsigargin, FK506, and a polypeptide. The value is the average of data of measurement performed twice or three times.

RyR2 = RyR2 (Canis lupus familiaris, UniProt A0A8I3MT21); conditions: cited from earlier work
RyR2, sequence (A0A8I3MT21 1-4967): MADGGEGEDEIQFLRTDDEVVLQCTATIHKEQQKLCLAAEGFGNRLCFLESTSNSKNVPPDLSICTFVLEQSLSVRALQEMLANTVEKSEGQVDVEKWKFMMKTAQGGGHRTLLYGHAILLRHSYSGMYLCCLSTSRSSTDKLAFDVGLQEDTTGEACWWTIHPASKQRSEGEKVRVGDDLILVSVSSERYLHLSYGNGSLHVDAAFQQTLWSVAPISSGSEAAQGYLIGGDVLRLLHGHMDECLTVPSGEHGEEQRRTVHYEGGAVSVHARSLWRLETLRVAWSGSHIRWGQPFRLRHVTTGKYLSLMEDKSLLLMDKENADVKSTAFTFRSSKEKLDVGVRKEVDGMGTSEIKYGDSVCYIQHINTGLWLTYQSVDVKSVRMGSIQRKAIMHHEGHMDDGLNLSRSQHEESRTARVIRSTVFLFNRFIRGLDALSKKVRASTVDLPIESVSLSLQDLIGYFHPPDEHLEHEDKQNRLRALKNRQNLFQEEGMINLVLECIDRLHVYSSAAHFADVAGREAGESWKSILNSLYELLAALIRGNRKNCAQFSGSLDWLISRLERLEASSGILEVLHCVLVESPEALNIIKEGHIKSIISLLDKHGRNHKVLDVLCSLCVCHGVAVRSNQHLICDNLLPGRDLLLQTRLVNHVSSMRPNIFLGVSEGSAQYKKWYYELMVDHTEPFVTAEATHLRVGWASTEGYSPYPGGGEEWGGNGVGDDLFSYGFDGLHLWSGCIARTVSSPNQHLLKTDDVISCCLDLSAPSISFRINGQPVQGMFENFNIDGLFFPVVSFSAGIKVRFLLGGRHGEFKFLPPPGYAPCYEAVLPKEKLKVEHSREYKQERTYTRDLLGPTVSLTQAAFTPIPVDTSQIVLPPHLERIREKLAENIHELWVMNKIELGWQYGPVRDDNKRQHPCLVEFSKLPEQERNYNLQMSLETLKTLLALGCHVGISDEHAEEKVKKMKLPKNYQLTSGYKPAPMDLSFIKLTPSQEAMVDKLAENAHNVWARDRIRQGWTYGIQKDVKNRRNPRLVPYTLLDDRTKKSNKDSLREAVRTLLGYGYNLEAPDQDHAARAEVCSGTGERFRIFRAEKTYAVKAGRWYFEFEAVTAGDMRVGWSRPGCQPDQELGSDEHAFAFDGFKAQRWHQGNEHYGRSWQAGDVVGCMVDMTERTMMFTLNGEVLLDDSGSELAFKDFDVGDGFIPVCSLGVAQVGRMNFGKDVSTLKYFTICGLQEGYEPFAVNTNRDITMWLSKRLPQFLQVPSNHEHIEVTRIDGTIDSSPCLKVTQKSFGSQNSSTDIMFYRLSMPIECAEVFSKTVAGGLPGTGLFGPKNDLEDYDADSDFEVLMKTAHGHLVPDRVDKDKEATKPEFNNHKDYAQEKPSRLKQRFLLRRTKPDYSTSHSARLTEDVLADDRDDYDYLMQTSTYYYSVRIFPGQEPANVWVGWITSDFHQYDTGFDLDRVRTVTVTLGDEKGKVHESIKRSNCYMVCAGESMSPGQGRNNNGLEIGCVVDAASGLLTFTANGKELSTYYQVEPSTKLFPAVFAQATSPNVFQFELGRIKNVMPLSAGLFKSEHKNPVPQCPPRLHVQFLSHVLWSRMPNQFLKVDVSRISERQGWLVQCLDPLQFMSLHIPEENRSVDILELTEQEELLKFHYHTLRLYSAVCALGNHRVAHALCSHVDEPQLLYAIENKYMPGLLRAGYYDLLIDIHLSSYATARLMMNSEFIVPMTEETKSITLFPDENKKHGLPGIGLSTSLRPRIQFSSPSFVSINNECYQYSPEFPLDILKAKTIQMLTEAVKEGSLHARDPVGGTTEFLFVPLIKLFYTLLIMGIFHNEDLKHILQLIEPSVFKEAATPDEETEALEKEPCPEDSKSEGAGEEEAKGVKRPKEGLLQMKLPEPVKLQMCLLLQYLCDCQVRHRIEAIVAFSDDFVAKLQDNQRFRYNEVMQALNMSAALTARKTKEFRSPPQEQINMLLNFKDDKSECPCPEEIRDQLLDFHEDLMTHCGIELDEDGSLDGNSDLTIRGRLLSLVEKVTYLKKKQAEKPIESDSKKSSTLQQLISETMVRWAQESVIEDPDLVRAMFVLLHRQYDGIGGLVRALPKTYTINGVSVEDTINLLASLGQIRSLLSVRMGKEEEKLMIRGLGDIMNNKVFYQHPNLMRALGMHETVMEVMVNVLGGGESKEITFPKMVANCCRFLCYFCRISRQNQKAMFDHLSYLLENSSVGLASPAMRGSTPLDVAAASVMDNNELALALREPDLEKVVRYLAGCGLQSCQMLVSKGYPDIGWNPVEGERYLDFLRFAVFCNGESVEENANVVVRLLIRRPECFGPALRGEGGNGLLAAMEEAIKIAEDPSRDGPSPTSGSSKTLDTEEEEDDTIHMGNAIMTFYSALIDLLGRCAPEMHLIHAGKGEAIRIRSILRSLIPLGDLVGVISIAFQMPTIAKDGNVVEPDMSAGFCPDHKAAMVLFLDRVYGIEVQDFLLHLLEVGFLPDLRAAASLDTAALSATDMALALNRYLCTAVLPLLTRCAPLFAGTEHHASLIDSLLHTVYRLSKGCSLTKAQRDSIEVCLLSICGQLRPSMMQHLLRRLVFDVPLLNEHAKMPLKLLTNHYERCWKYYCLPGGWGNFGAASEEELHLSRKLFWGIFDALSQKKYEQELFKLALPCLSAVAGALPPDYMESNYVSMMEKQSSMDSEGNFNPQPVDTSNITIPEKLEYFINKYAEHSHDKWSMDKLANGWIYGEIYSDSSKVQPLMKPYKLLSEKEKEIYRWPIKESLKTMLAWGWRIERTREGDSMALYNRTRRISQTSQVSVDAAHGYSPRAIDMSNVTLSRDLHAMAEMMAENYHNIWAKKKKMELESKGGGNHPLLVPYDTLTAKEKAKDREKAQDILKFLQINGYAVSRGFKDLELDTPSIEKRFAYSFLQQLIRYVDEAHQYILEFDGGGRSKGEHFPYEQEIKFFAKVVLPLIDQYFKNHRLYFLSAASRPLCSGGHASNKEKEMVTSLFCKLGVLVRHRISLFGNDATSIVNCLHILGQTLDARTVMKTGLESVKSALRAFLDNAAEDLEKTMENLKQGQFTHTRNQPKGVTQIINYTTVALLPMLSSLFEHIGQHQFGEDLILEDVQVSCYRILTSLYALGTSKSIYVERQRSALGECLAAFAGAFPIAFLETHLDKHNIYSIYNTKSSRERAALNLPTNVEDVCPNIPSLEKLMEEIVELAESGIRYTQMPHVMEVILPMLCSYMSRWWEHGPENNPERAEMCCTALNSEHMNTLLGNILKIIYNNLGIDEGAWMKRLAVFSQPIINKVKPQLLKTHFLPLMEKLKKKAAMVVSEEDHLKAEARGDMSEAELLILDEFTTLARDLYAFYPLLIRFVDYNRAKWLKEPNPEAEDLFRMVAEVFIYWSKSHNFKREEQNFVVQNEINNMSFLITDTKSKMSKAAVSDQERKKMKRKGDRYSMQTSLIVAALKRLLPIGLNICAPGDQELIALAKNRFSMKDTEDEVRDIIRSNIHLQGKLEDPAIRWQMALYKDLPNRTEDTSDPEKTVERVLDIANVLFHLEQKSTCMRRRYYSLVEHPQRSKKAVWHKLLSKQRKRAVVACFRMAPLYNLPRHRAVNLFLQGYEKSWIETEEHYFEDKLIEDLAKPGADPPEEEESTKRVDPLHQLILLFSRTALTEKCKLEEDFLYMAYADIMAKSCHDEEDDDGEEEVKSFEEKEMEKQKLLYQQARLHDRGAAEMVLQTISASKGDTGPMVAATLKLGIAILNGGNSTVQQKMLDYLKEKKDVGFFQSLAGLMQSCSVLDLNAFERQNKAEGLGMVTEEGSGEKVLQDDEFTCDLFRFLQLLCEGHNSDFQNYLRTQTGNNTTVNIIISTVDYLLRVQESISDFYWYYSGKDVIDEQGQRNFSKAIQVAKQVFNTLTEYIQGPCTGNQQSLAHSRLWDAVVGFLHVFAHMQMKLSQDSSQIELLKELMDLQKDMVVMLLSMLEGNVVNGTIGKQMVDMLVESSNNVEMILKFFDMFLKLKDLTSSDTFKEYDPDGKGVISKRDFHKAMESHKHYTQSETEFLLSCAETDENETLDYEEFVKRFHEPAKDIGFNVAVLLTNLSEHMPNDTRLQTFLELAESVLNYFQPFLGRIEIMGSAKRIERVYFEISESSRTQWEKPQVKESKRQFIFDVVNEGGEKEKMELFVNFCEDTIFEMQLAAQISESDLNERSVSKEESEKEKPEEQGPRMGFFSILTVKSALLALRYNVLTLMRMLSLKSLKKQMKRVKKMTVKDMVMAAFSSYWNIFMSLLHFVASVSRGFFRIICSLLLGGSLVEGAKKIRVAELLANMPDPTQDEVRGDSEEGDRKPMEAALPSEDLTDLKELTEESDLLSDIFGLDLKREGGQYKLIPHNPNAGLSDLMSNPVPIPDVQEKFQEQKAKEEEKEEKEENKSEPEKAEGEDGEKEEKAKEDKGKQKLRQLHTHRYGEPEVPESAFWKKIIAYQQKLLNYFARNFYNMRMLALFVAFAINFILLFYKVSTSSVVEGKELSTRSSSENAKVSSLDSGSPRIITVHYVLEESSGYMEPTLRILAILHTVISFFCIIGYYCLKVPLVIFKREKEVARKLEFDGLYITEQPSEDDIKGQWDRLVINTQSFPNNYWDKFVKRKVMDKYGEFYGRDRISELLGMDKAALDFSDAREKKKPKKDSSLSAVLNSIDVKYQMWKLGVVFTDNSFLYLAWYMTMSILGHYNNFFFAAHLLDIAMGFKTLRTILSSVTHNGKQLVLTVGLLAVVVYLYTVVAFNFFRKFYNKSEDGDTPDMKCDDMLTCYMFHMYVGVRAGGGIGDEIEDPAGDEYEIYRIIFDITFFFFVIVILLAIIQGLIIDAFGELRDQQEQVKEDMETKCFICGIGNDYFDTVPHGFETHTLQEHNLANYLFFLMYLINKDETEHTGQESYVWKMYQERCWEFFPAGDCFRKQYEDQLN

[1] = tested on: tachycardia-induced canine heart failure model; conditions: cited from earlier work
normal canine model = conditions: cited from earlier work
[2] = tested on: ischemic reperfusion injury; conditions: Hypertens. Res., 25: 303-9 (2002); cited from earlier work
[3] = tested on: neuron death during cerebral ischemia; conditions: Neurosci. Lett., 158: 105-108 (1993); cited from earlier work

Compound	Ca2+ leakage inhibitory effect (ryanodine receptor)	Ca2+ leakage inhibitory activity compared with R2P (ryanodine receptor; FK506-induced leakage)	further results
RP1-20: hRyR2 amino acid Nos. 2114-2133; deletion of 16 amino acids at the C-terminal of R2P (EDTINLLASLGQIRSLLSVR)	exhibit Ca^2+ leakage inhibitory effect in a concentration-dependent manner	lower than that of R2P	
RP1-25: hRyR2 amino acid Nos. 2114-2138; deletion of 11 amino acids at the C-terminal of R2P (EDTINLLASLGQIRSLLSVRMGKEE)	exhibit Ca^2+ leakage inhibitory effect in a concentration-dependent manner	lower than that of R2P	
MSV-RP2: M+2112-2149; addition of methionine, serine and valine to the N-terminal of R2P (MSVEDTINLLASLGQIRSLLSVRMGKEEEKLMIRGLGDI)	exhibit Ca^2+ leakage inhibitory effect in a concentration-dependent manner	lower than that of R2P	
SEQ ID NO: 14: hRyR2 amino acid Nos. 2086-2113 (VLLHRQYDGIGGLVRALPKTYTINGVSV)	having no Ca^2+ leakage inhibitory effect		
R2P: 36 amino acids corresponding to positions 2114 to 2149 of human ryanodine receptor type 2 (hRyR2) (EDTINLLASLGQIRSLLSVRMGKEEEKLMIRGLGDI)	inhibits Ca^2+ leakage in a concentration-dependent manner		Ca2+ leakage inhibitory effect compared with control JTV519 (ryanodine receptor; 1.0 μM polypeptide vs 0.3 μM JTV519, FK506-induced leakage): comparable to that of 0.3 μM JTV519
RP1-30: hRyR2 amino acid Nos. 2114-2143; deletion of six amino acids at the C-terminal of R2P (EDTINLLASLGQIRSLLSVRMGKEEEKLMI)	exhibit Ca^2+ leakage inhibitory effect in a concentration-dependent manner	lower than that of R2P	
COc1ccc2c(c1)CN(C(=O)CCN1CCC(Cc3ccccc3)CC1)CCS2 [JTV-519]			Correction of abnormal Ca2+ leakage via RyR2 (RyR2; Non-Patent Document 9): corrects abnormal Ca^2+ leakage via RyR2; Inhibition of Ca2+ leakage from the sarcoplasmic reticulum of failing myocardium (RyR2; known property of the control): inhibit Ca^2+ leakage from the sarcoplasmic reticulum of failing myocardium in a concentration-dependent manner; Effect on cardiac function [1]: exhibit the effect of improving cardiac function; Effect on cardiac function (normal canine model): exhibit no effect on cardiac function; Effect on ischemic reperfusion injury [2]: effective for ischemic reperfusion injury
R2JF: hRyR2 amino acid Nos. 2086-2133; SEQ ID NO: 14 peptide introduced to the N-terminal of RP1-20 (VLLHRQYDGIGGLVRALPKTYTINGVSVEDTINLLASLGQIRSLLSVR)	exhibit no Ca^2+ leakage inhibitory effect		
O=C1CN(/N=C/c2ccc(-c3ccc([N+](=O)[O-])cc3)o2)C(O)=N1 [dantrolene]			Inhibition of neuron death during cerebral ischemia [3]: inhibit neuron death during cerebral ischemia
RP17-36: hRyR2 amino acid Nos. 2130-2149; deletion of 16 amino acids at the N-terminal of R2P (LSVRMGKEEEKLMIRGLGDI)	exhibit Ca^2+ leakage inhibitory effect in a concentration-dependent manner	lower than that of R2P	
RP13-32: hRyR2 amino acid Nos. 2126-2145; deletion of 12 N-terminal and four C-terminal amino acids of R2P (IRSLLSVRMGKEEEKLMIRG)	exhibit Ca^2+ leakage inhibitory effect in a concentration-dependent manner	lower than that of R2P	
